Target: T1, Or35a (Drosophila melanogaster, UniProt Q9V3Q2)
T1 construct: his-tag; made in house; host or cells: baculovirus-infected Sf9 cells
T1 sequence (Q9V3Q2 1-409): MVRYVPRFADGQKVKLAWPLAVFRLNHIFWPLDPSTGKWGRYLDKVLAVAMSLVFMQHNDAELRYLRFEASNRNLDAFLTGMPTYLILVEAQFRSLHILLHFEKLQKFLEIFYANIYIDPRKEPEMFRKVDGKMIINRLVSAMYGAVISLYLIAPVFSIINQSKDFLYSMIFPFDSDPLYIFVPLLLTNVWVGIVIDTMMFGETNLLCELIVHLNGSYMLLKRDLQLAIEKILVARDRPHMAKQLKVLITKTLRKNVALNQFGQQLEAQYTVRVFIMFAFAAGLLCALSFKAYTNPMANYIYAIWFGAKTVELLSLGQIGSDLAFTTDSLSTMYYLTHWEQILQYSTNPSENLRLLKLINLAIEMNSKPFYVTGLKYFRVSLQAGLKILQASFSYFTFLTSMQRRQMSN
Test: EIS sensor, Or35a liposomes on gold electrode
Format: biochemical
Settings: EIS dose response
Description: PBS (pH=7.4) was used as an electrolyte to conduct electrochemical measurements. PBS buffer was degassed for about 30 minutes prior to electrochemical measurements. Odorant solutions of concentration ranging from 1 aM to 1 μM were prepared by sequential dilution in PBS solution containing 1% DMSO. OR immobilized electrodes were incubated in relevant odorant solution for ˜30 minutes each and washed gently with PBS before EIS measurements.
EIS measurements were done in a 3 electrode cell containing Ag/AgCl (3 M NaCl, 0.209 V vs. SHE) reference electrode, coiled platinum wire as a counter electrode and the gold disk as a working electrode at a fixed voltage of −0.7 using PalmSens potentiostat. Degassed PBS was used as an electrolyte.
EIS measurements were performed on gold electrodes functionalised with OrX liposomes (either Or10a or Or22a), OrX/Orco liposomes, or empty liposomes prior to and after target ligand or control ligand incubation with increasing concentrations (1 aM to 100 μM). Dose response curves were obtained by defining sensor response as −(ΔRp/R^op) versus log[C(Ligand)]. FIG. 4a presents the EIS response in terms of Nyquist plot for the Or10a liposome functionalized sensors when exposed to a solution containing one of the known target ligands of Or10a, methyl salicylate, at various concentrations. […] The dose response curve (FIG. 4b) was obtained by plotting the change in polarization resistance −(ΔRp/R^op) versus log[conc(Ligand)], as the sensor response. Here, Rp is the polarization resistance after Or10a liposome-target interaction and R^op is the polarization resistance before Or10a liposome-target interaction.
Prior to use, 1 mg liposomes (500 μl at 2 mg/ml) were defrosted on ice and then destabilized by incubating with 0.2% CHAPS for 15 min at room temperature. […] All Or35a/Orco integrated liposomes samples were analysed by Western blot before being aliquoted and stored at −80° C. Integration of Or35a/Orco into liposomes was assessed by density gradient ultracentrifugation (DGU) using Accudenz (Accurate Chemical & Scientific Corporation, USA). […]

With `COC(=O)c1ccccc1O` [methyl salicylate] the “sensor response to control ligand” value was “negligible response”.

From US20210255184A1, “Biosensor Device and Methods” (The New Zealand Institute for Plant and Food Research …, priority 2018, published 2021)
